Test results from patent publication US8389573B2, “Glycyrrhetinic acid derivatives” (Wellington Laboratories Inc., priority 2006, dated 2013).

Experiments:
SW480 colon cancer cells = assay: Cell proliferation assay in SW480 cells; assay type: cell-based; conditions: Homo sapiens, read-out: IC50, growth inhibition / cell proliferation
Method: Human colon carcinoma cell lines SW480 and HT29 were provided by Dr. Stan Hamilton, M.D. Anderson Cancer Center (Houston, Tex.); SW-480 and HT-29 cells were maintained in Dulbecco's modified Eagle's medium nutrient mixture with Ham's F-12 (DMEM/Ham's F-12; Sigma-Aldrich, St. Louis, Mo.) with phenol red supplemented with 0.22% sodium bicarbonate, 0.011% sodium pyruvate, and 5% fetal bovine serum and 10 ml/l 100× antibiotic antimycotic solution (Sigma-Aldrich). Cells were maintained at 37° C. in the presence of 5% CO2.
SW480 and HT 29 Cells (2×10^4) were plated in 12-well plates, and media were replaced the next day with DMEM/Ham's F-12 media containing 2.5% charcoal-stripped FBS and either vehicle (DMSO) or the indicated ligand and dissolved in DMSO. Fresh media and compounds were added every 48 h. Cells were counted at the indicated times using a Coulter Z1 cell counter. Each experiment was done in triplicate, and results are expressed as means±S.E. for each determination

PPARγ = target: T1, PPARγ (Homo sapiens, UniProt P37231); assay: PPRE3-Luc transfection and luciferase assay in SW480 cells; assay type: cell-based
T1 construct: endogenous in cells; host or cells: SW480 colon cancer cells
T1 sequence (P37231 1-505): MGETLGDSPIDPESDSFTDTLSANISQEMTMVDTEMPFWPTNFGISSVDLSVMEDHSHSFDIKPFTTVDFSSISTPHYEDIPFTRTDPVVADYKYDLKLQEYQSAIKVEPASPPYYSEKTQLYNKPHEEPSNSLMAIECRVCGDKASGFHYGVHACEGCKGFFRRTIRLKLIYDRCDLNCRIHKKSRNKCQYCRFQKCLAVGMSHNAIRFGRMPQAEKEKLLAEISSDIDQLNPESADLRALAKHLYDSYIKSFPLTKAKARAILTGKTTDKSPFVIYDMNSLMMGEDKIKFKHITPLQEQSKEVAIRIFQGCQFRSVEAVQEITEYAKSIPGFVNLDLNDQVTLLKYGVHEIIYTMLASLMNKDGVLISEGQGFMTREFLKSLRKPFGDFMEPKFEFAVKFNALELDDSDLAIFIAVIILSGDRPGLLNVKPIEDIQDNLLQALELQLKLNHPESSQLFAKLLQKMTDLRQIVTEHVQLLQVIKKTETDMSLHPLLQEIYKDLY
Method: The Gal4 reporter containing 5× Gal4 response elements (pGal4) was kindly provided by Dr. Marty Mayo (University of North Carolina, Chapel Hill, N.C.). Gal4 DBD-PPARγ construct (gPPARγ) was a gift of Dr. Jennifer L. Oberfield (GlaxoSmithKline Research and Development, Research Triangle Park, N.C.). PPRE3-luc construct contains three tandem PPREs with a minimal TATA sequence in pGL2.
Colon Cancer cell lines SW480 and HT29 (1×10^5 cells/well) were plated in 12-well plates in DMEM/Ham's F-12 media supplemented with 2.5% charcoal-stripped FBS. After 16 h, various amounts of DNA [i.e., Gal4Luc (0.4 μg), β-Gal (0.04 μg), Gal4PPAR and PPRE3-Luc (0.04 μg)] were transfected using LipofectAMINE™ reagent (Invitrogen) following the manufacturer's protocol. Five hours after transfection, the transfection mix was replaced with complete media containing either vehicle (DMSO) or the indicated ligand for 20 to 22 h. Cells were then lysed with 100 μl of 1× reporter lysis buffer, and 30 μl of cell extract was used for luciferase and […] assays. A LumiCount™ luminometer (PerkinElmer Life and Analytical Sciences) was used to quantitate luciferase and β-Gal activities, and the luciferase activities were normalized to β-Gal activity. Results are expressed as means±S.E. for at least three replicate determinations for each treatment group

PSA mRNA = assay: Real-time PCR of PSA mRNA in LNCaP cells; assay type: cell-based, human; conditions: 12 or 18 hr
Method: Real-Time PCR: Total RNA was isolated using the RNeasy Protect Mini kit (QIAGEN, Valencia, Calif.) according to the manufacturer's protocol. RNA was eluted with 30 μl of RNasefree water and stored at −80° C. RNA was reverse transcribed using Superscript II reverse transcriptase (Invitrogen) according to the manufacturer's protocol. cDNA was prepared from the LNCaP cell line using a combination of oligodeoxythymidylic acid and dNTP mix (Applied Biosystems, Foster City, Calif.) and Superscript II (Invitrogen). Each PCR was carried out in triplicate in a 25-μl volume using SYBR Green Master mix (Applied Biosystems) for 15 min at 95° C. for initial denaturing, followed by 40 cycles of 95° C. for 30 s and 60° C. for 1 min in the ABI Prism 7700 sequence detection system (Applied Biosystems). The ABI Dissociation Curves software was used after a brief thermal protocol (95° C. 15 s and 60° C. 20 s, followed by a slow ramp to 95° C.) to control for multiple species in each PCR amplification. The comparative CT method was used for relative quantitation of samples. Values for each gene were normalized to expression levels of TATA-binding protein. Primers were purchased from Integrated DNA Technologies (Coralville, Iowa). The sequences of the primers used for reverse transcription-PCR were as follows: AR forward, 5′-GTA CCC TGG CGG CAT GGT-3′ [SEQ ID NO: 1] and AR reverse, 5′-CCCATTTCGCTTTTGACACA-3′ [SEQ ID NO: 2]; PSA forward, 5′-GCATTGAACCAGAGGAGTTCTTG-3′ [SEQ ID NO: 3] and PSA reverse, 5′-TTG CGC ACA CAC GTC ATT G-3′ [SEQ ID NO: 4]; and TATA-binding protein forward, 5′-TGCACAGGAGCCAAGAGTGAA-3′ [SEQ ID NO: 5] and reverse, 5′-CACATCACAGCTCCCCACCA-3′ [SEQ ID NO: 6].

- IC50 (SW480 colon cancer cells): 0.2 to 0.5 µM
- transactivation of PPRE3-Luc (PPARγ): induced transactivation
- PPRE3-Luc transactivation after cotreatment with PPARγ antagonists T007 and GW9662 (PPARγ; 10 μM antagonist): inhibited
SMILES: COC(=O)[C@@]1(C)CC[C@]2(C)CC[C@]3(C)C(=CC(=O)[C@@H]4[C@@]5(C)C=C(C#N)C(=O)C(C)(C)[C@@H]5CC[C@]43C)[C@@H]2C1 [β-CDODA-Me, Methyl 2-cyano-3,11-dioxo-18β-oleana-1,12-dien-30-oate]
- PSA mRNA levels (PSA mRNA): downregulation of PSA mRNA levels
- PSA mRNA response after cotreatment with T007 (PSA mRNA): not inhibited
- downregulation of PSA mRNA levels after cotreatment with cycloheximide (PSA mRNA): significantly inhibited
